Several values for one entry are separate records, joined by “and”; a condition that tells them apart may be missing. Identical values can stand only once. Square brackets hold non-standard residues; d marks the D form. Peptide text beside a SMILES is read from it. * marks the point of attachment. O(cholesteryl) = CC(C)CCC[C@@H](C)[C@H]1CC[C@H]2[C@@H]3CC=C4C[C@@H](O*)CC[C@]4(C)[C@H]3CC[C@]12C; Nicotinoyl(1-Me-1,4-dihydro) = CN1C=CCC(C(=O)*)=C1
How the values were obtained:
[1] = tested on: Swiss Webster mice; experiment: Methohexital (barbiturate)-induced sleeping time in mice after i.v. injection; format: in vivo; conditions: mice; for methohexital induced sleeping time, individual animals / methohexital induced sleeping time, mean: methohexital 90 mg/kg i.p. 10 min later
Source text: Two representative chemical delivery systems (CDS's) of the invention for the TRH analog [Leu^2 ]-TRH, i.e., compound (8) of Scheme I/EXAMPLE 8, which has an alanine spacer, and compound (12) of Scheme II/Example 12, which has an alanine-alanine spacer, were studied for their effects on the barbiturate-induced sleeping time in mice. TRH is known to antagonize the reduction in cholinergic activity induced by barbiturates. Thus, the activational effects of the CDS's for TRH analogs on cholinergic neurons can be measured by quantitating the antagonism of pentobarbital-induced sleeping and barbiturate-induced reduction in cholinergic neuronal activity.
Swiss Webster mice weighing 30±2 g were used. The compounds were dissolved in a vehicle consisting of DMSO, ethanol and 50% (w/w) 2-hydroxypropyl-β-cyclodextrin at a ratio of 1:2:1 (15 mg/ml). CDS's at a dose of 30 mg/kg were injected in the animals through the tail vein. Vehicle only and an equimolar dose of TRH and [Leu^2 ]-TRH, 10 mg/kg, were also administered to compare CNS activities. Ten minutes after i.v. injection of the compound, each animal received an intraperitoneal injection of sodium methohexital solution (45 mg/ml) at a dose of 90 mg/kg. The sleeping time was recorded as the time elapsed from the onset of loss of the […] until the reflex was regained. Each compound and the vehicle control were tested on 5-11 animals. The statistical analysis was performed using the Student's t test.

[2] = tested on: Sprague-Dawley rats; experiment: Rat tail flick test (analgesia) after i.v. administration; format: in vivo; set-up: Area under the latency change vs. time curve, AUC0-240 min: unit not given here; conditions: for Tail flick latency period / Maximum tail flick latency: cutoff 60 s; for Tail flick latency period / Maximum tail flick latency / Area under the latency change vs. time curve, AUC0-240 min: mean ± S.E.; for Number of Animals with maximum tail flick latency >60 seconds: cutoff latency 60 seconds; for analgesic effect in tail flick test (in words): i.v., compared to control
Protocol: Sprague-Dawley rats weighing 200-250 g were used. Drugs were dissolved in the vehicle consisting of DMSO, ethanol and 50% (w/w) 2-hydroxypropyl-β-cyclodextrin at a ratio of 1:2:1. A-CDS at a dose of 5 or 10 mg/2 ml/kg was injected in the animals through the tail vein. Vehicle only, or an equimolar dose (5 mg/kg) of DADLE (equimolar to 10 mg/kg of A-CDS) was also administered to compare the pharmacological activities. Tail flick latency, an index of spinal cord mediated analgesia, was measured before (control) and at 5 minutes, 15 minutes, 30 minutes, 1 hour, 2 hours, 3 hours, 4 hours, 5 hours and 6 hours after drug administration. The instrument used was a model 33 tail flick analgesia meter (lite, Inc., Landing, N.J.) set with the beam dial at 90 and the sensitivity at 8. Time between presentation of a focused beam of light and the reflexive removal of the tail from the stimulus was defined as the tail flick latency period, and the tail flick latency difference between each time point and control was defined as the change in tail flick latency. In the absence of response, a cut-off period of 1 minute was used. Each drug at each dose was tested in ten animals. Results are presented in Tables 5-8 below and in FIGS. 3-5.
Another representative chemical delivery system (AA-CDS) of the invention for the enkephalin analog DADLE, namely compound (69) of EXAMPLE 69, which has an alanine-alanine spacer, was studied in the same rat tail flick test procedure described above to determine its analgesic effects compared to DADLE itself. AA-CDS was tested at a dose of 10 mg/2 ml/kg, which is equimolar to 5 mg/kg of DADLE, and compared with vehicle and 5mg/kg of DADLE exactly as described above. Each dose was tested in ten animals.

[3] = Table 1 experiment, CDS 30 mg/kg i.v.
[4] = 5 mg/kg i.v., 0 min (prior to drug administration)
[5] = 10 mg/kg i.v., 0 min (prior to drug administration)
[6] = Table 2 experiment, 10 mg/kg i.v.

| SMILES | methohexital induced sleeping time, individual animals [1, 3] | methohexital induced sleeping time, mean [1, 3] [min] | No. of Death [1, 3] | Number of Animals with maximum tail flick latency 20-40 seconds ([2]; 5 mg/kg i.v.) | Number of Animals with maximum tail flick latency 40-60 seconds ([2]; 5 mg/kg i.v.) | Number of Animals with maximum tail flick latency <20 seconds ([2]; 5 mg/kg i.v.) | Tail flick latency period [2, 4] [s] | Tail flick latency period ([2]; 5 mg/kg i.v., 5 min) [s] | Tail flick latency period ([2]; 5 mg/kg i.v., 15 min) [s] | Tail flick latency period ([2]; 5 mg/kg i.v., 30 min) [s] | Tail flick latency period ([2]; 5 mg/kg i.v., 60 min) [s] | Tail flick latency period ([2]; 5 mg/kg i.v., 120 min) [s] | Tail flick latency period ([2]; 5 mg/kg i.v., 180 min) [s] | Tail flick latency period ([2]; 5 mg/kg i.v., 240 min) [s] | Tail flick latency period ([2]; 5 mg/kg i.v., 300 min) [s] | Maximum tail flick latency ([2]; 5 mg/kg i.v.) [s] | Number of Animals with maximum tail flick latency >60 seconds ([2]; 5 mg/kg i.v.) | Area under the latency change vs. time curve, AUC0-240 min ([2]; 5 mg/kg i.v.) | Number of Animals with maximum tail flick latency 20-40 seconds ([2]; 10 mg/kg i.v.) | Number of Animals with maximum tail flick latency 40-60 seconds ([2]; 10 mg/kg i.v.) | also measured |
| --- | --- | --- | --- | --- | --- | --- | --- | --- | --- | --- | --- | --- | --- | --- | --- | --- | --- | --- | --- | --- | --- |
| CC(C)CCC[C@@H](C)[C@H]1CC[C@H]2[C@@H]3CC=C4C[C@@H](OC(=O)CNC(=O)[C@@H]5CCCN5C(=O)[C@H](CC(C)C)NC(=O)[C@H](CCC(N)=O)NC(=O)[C@H](C)NC(=O)C5=CN(C)C=CC5)CC[C@]4(C)[C@H]3CC[C@]12C [Compound (8), 1.4-Dihydrotrigonellyl-Ala-Gln-Leu-Pro-Gly-Cholesteryl Ester] ({Nicotinoyl(1-Me-1,4-dihydro)}-AQLPG-{O(cholesteryl)}) | 18.23 min and 15.33 min and 11.90 min and 17.27 min and 46.07 min and 18.58 min and 15.73 min and 34.43 min and 16.15 min | 21.52 | 2 |  |  |  |  |  |  |  |  |  |  |  |  |  |  |  |  |  |  |
| CC(C)CCC[C@@H](C)[C@H]1CC[C@H]2[C@@H]3CC=C4C[C@@H](OC(=O)CNC(=O)[C@@H]5CCCN5C(=O)[C@H](CC(C)C)NC(=O)[C@H](CCC(N)=O)NC(=O)[C@H](C)NC(=O)[C@H](C)NC(=O)C5=CN(C)C=CC5)CC[C@]4(C)[C@H]3CC[C@]12C [Compound (12), 1,4-Dihydrotrigonellyl-Ala-Ala-Gln-Leu-Pro-Gly-Cholesteryl Ester] ({Nicotinoyl(1-Me-1,4-dihydro)}-AAQLPG-{O(cholesteryl)}) | 12.08 min and 17.18 min and 27.05 min and 10.07 min and 16.40 min and 19.00 min and 8.13 min and 15.38 min and 17.93 min and 9.45 min | 15.27 | 1 |  |  |  |  |  |  |  |  |  |  |  |  |  |  |  |  |  |  |
| CC(C)CCC[C@@H](C)[C@H]1CC[C@H]2[C@@H]3CC=C4C[C@@H](OC(=O)[C@@H](CC(C)C)NC(=O)[C@H](Cc5ccccc5)NC(=O)CNC(=O)[C@@H](C)NC(=O)[C@H](Cc5ccc(O)cc5)NC(=O)[C@H](C)NC(=O)C5=CN(C)C=CC5)CC[C@]4(C)[C@H]3CC[C@]12C [Compound (64), 1,4-Dihydrotrigonellyl-Ala-Tyr-D-Ala-Gly-Phe-D-Leu-Cholesteryl Ester] ({Nicotinoyl(1-Me-1,4-dihydro)}-AY[dA]GF[dL]-{O(cholesteryl)}) |  |  |  | 2 | 2 | 4 | 7.24 ± 0.58 | 25.95 ± 5.64 | 20.63 ± 5.40 | 14.22 ± 2.22 | 13.00 ± 1.97 | 18.37 ± 5.10 | 16.63 ± 2.02 | 20.28 ± 5.58 | 17.84 ± 3.42 | 33.05 ± 5.99 | 2 | 2528.70 ± 663.78 | 1 | 3 | Number of Animals with maximum tail flick latency <20 seconds ([2]; 10 mg/kg i.v.): 0; Tail flick latency period [2, 5]: 9.21 ± 0.53 s; Tail flick latency period ([2]; 10 mg/kg i.v., 5 min): 49.67 ± 4.67 s; Tail flick latency period ([2]; 10 mg/kg i.v., 15 min): 40.71 ± 7.00 s; Tail flick latency period ([2]; 10 mg/kg i.v., 30 min): 36.03 ± 6.34 s; Tail flick latency period ([2]; 10 mg/kg i.v., 60 min): 32.59 ± 6.63 s; Tail flick latency period ([2]; 10 mg/kg i.v., 120 min): 26.28 ± 4.56 s; Tail flick latency period ([2]; 10 mg/kg i.v., 180 min): 28.50 ± 4.40 s; Tail flick latency period ([2]; 10 mg/kg i.v., 240 min): 28.30 ± 4.68 s; Tail flick latency period ([2]; 10 mg/kg i.v., 300 min): 30.15 ± 3.81 s; Maximum tail flick latency ([2]; 10 mg/kg i.v.): 51.94 ± 3.83 s; Number of Animals with maximum tail flick latency >60 seconds ([2]; 10 mg/kg i.v.): 6; Area under the latency change vs. time curve, AUC0-240 min ([2]; 10 mg/kg i.v.): 4897.80 ± 1011.63; analgesic effect in tail flick test (in words) [2]: significant and prolonged increase in the latency of the tail-flick response |
| CC(C)CCC[C@@H](C)[C@H]1CC[C@H]2[C@@H]3CC=C4C[C@@H](OC(=O)[C@@H](CC(C)C)NC(=O)[C@H](Cc5ccccc5)NC(=O)CNC(=O)[C@@H](C)NC(=O)[C@H](Cc5ccc(O)cc5)NC(=O)[C@H](C)NC(=O)[C@H](C)NC(=O)C5=CN(C)C=CC5)CC[C@]4(C)[C@H]3CC[C@]12C [Compound (69), 1,4Dihydrotrigonellyl-Ala-Ala-Tyr-D-Ala-Gly-Phe-D-Leu-Cholesteryl Ester] ({Nicotinoyl(1-Me-1,4-dihydro)}-AAY[dA]GF[dL]-{O(cholesteryl)}) |  |  |  |  |  |  |  |  |  |  |  |  |  |  |  |  |  |  | 2 | 2 | Number of Animals with maximum tail flick latency <20 seconds ([2]; 10 mg/kg i.v.): 3; Tail flick latency period [2, 5]: 8.47 ± 0.76 s; Tail flick latency period ([2]; 10 mg/kg i.v., 5 min): 29.78 ± 5.99 s; Tail flick latency period ([2]; 10 mg/kg i.v., 15 min): 20.24 ± 5.07 s; Tail flick latency period ([2]; 10 mg/kg i.v., 30 min): 20.41 ± 5.42 s; Tail flick latency period ([2]; 10 mg/kg i.v., 60 min): 13.77 ± 2.01 s; Tail flick latency period ([2]; 10 mg/kg i.v., 120 min): 11.81 ± 0.99 s; Tail flick latency period ([2]; 10 mg/kg i.v., 180 min): 15.94 ± 1.89 s; Tail flick latency period ([2]; 10 mg/kg i.v., 240 min): 13.99 ± 0.95 s; Tail flick latency period ([2]; 10 mg/kg i.v., 300 min): 18.43 ± 4.52 s; Maximum tail flick latency ([2]; 10 mg/kg i.v.): 34.27 ± 6.20 s; Number of Animals with maximum tail flick latency >60 seconds ([2]; 10 mg/kg i.v.): 2; Area under the latency change vs. time curve, AUC0-240 min ([2]; 10 mg/kg i.v.): 1639.67 ± 266.61; analgesic effect in tail flick test (in words) [2]: produced a significant analgesic effect |
| CC(C)C[C@@H](NC(=O)[C@H](Cc1ccccc1)NC(=O)CNC(=O)[C@@H](C)NC(=O)[C@@H](N)Cc1ccc(O)cc1)C(=O)O [DADLE, H-Tyr-D-Ala-Gly-Phe-D-Leu-OH, reference compound] |  |  |  | 3 | 0 | 7 | 7.97 ± 0.60 | 12.15 ± 1.53 | 12.67 ± 1.18 | 12.66 ± 1.70 | 15.75 ± 3.03 | 10.11 ± 1.29 | 10.94 ± 1.65 | 10.64 ± 1.68 | 10.02 ± 1.08 | 19.68 ± 2.42 | 0 | 775.58 ± 273.20 |  |  |  |
| NC(=O)[C@@H]1CCCN1C(=O)[C@H](Cc1cnc[nH]1)NC(=O)[C@@H]1CCC(=O)N1 [TRH, PyroGlu-His-Pro-NH2] |  |  |  |  |  |  |  |  |  |  |  |  |  |  |  |  |  |  |  |  | methohexital induced sleeping time, individual animals [1, 6]: 20.47 min and 23.90 min and 15.00 min and 12.90 min and 11.17 min and 11.77 min and 40.82 min; methohexital induced sleeping time, mean [1, 6]: 19.43 min; No. of Death [1, 6]: 2; behavior / symptoms of animals after i.v. administration ([1]; i.v.): tremor, tail-elevation and piloerection |
